Assay [1] relates to TCPTP. The following applies: via the cytoplasmic tail of ITGA1; cited from earlier work.
The target of assay [2] is T1, TCPTPCAT (residues 1-288) (human, UniProt P17706-2 1-288).
T1 construct: T cell protein tyrosine phosphatase (TCPTP, PTPN2), human, TC45 isoform, catalytic domain residues 1-288, cloned into pMCSG7; used for cross-linking in trans; source: E. coli BL21 (DE3) RIL, purified (His-trap, TEV cleavage, subtraction, SEC); not shown: His6, N-terminal, cleaved
T1 sequence (looked up): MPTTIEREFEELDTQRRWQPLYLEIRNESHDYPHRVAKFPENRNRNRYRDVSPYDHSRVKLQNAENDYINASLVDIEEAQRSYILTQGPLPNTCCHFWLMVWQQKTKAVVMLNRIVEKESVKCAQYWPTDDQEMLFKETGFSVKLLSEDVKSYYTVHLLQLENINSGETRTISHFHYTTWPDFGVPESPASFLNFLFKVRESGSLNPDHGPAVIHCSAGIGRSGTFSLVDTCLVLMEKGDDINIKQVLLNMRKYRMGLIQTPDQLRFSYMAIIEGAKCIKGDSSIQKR
Kind of assay: cross-linking; in trans: TCPTPCAT (1-288) 0.75 μM with TCPTP_Tail (289-387) 75 or 150 μM (1:100 and 1:200), BS3 or DSSO 0 to 1000 μM, 25 mM Hepes pH 7.4, 50 mM NaCl, room temperature 1 h; band cut from SDS-PAGE, LC-MS or LC-MSn. The following applies: both partners purified.

For “integrin α1: collagen-binding integrin α1 (ITGA1)”, the “activation of full-length TCPTP” value in assay [1] is given as “activate full-length TCPTP”.

B1: TCPTP_(Tail) (residues 289-387) (domain or fragment, human, UniProt P17706-2 289-387, looked up)
chain: WKELSKEDLSPAFDHSPNKIMTEKYNGNRIGLEEEKLTGDRCTGLSSKMQDTMEENSESALRKRIREDRKATTAQKVQQMKQRLNENERKRKRPRLTDT
notes: T cell protein tyrosine phosphatase (TCPTP, PTPN2), human, TC45 isoform, C-terminal tail residues 289-387, cloned into pMCSG7; used for cross-linking in trans; source: E. coli BL21 (DE3) RIL, purified (His-trap, TEV cleavage, subtraction, heat step 80 °C 10 min, SEC); not shown: His6, N-terminal, cleaved
Take B1: the binding result in assay [2] is “binds”.
